Experimental data published in BigSolDB 2.1.

CO/N=C(\C(=O)O)c1csc(N)n1
Details | solubility (mole fraction)
in ethanol, 283.12 K | 6.9e-05
in ethanol, 288.42 K | 8.31e-05
in ethanol, 293.23 K | 0.000101
in ethanol, 298.17 K | 0.000124
in ethanol, 303.33 K | 0.000151
in ethylene glycol, 283.11 K | 0.00129
in ethylene glycol, 288.68 K | 0.00152
in ethylene glycol, 293.41 K | 0.00175
in ethylene glycol, 298.26 K | 0.002
in ethylene glycol, 303.46 K | 0.0023
in methanol, 283.75 K | 0.000293
in methanol, 288.17 K | 0.000334
in methanol, 293.36 K | 0.00038
in methanol, 298.26 K | 0.00043
in methanol, 303.1 K | 0.000489
in n-propanol, 282.85 K | 2.14e-05
in n-propanol, 288.05 K | 2.49e-05
in n-propanol, 293.09 K | 3.1e-05
in n-propanol, 298.3 K | 4.25e-05
in n-propanol, 303.08 K | 5.94e-05
in water, 283.67 K | 0.000356
in water, 288.48 K | 0.000416
in water, 293.22 K | 0.000483
in water, 298.36 K | 0.000557
in water, 303.22 K | 0.000637
